Source: patent US9505717B2, “Acetic acid ester compound or salt thereof” (Taiho Pharmaceutical Co., Ltd., priority 2012, dated 2016)

Test system: female SD rats
Test: Test Example 1: urethral baseline pressure (intraurethral pressure) in rats after oral administration
Format: in vivo, rat
Conditions: 3 mg/kg oral, 11-week-old female SD rats, n=8, mean for 30 minutes after 8 hours from administration, Student's t-test vs distilled water group, FIG. 1
Description: The compounds of the present invention and comparative compounds were individually orally administered in an amount of 3 mg/kg to 11-week-old female SD rats (test substance-administration groups, n=8 for each group), and distilled water was orally administered as the control to 11-week-old female SD rats (solvent administration group, n=8). As the comparative compounds, 4-(1-methylpiperidyl) 2,2-diphenyl-2-propoxyacetate (Comparative Example 1), 4-(1-methylpiperidyl) 2,2-diphenyl-2-(propoxy-1,1,2,2,3,3,3-d7)acetate (Comparative Example 2), which is a deuterated compound of Comparative Example 1, and 4-piperidyl 2,2-diphenyl-2-propoxyacetate (Comparative Example 3), synthesized according to Patent Literatures 1 to 3, respectively, were used.
Seven and a half hours after administration, each rat was anesthetized by intraperitoneal administration of 1.2 g/kg of urethane. Thereafter, the ureters and the area between the urethra and the bladder were ligated, and a vesical fistula catheter and a catheter for measuring intraurethral pressure were inserted and indwelled in the bladder and the urethra. The catheter for measuring intraurethral pressure was inserted from the external urethral orifice. The other end of each catheter was connected to a corresponding pressure transducer branched into two directions via a corresponding three-way stopcock, and the remaining connecting portion of each three-way stopcock was connected to a corresponding syringe set in a continuous injection device. Intravesical pressure and intraurethral pressure were recorded via a polygraph connected with the pressure transducers. […] Physiological saline was injected into the urethra using the micro syringe pump connected to the urethra at 3 mL/hr, and the changes in intraurethral pressure associated with the rhythmic contraction were recorded.
The mean values of the urethral baseline pressure for the solvent administration group and the test substance-administration groups were calculated, and the results were indicated as mean±SE. […]

Row | Structure (SMILES) | urethral baseline pressure (effect versus solvent administration group)
1 | CCCOC(C(=O)OC1CCN(C)CC1)(c1ccccc1)c1ccccc1 [Comparative Example 1, 4-(1-methylpiperidyl) 2,2-diphenyl-2-propoxyacetate] | did not have a significant effect on urethral baseline pressure
2 | [2H]C([2H])([2H])C([2H])([2H])C([2H])([2H])OC(C(=O)OC1CCN(C)CC1)(c1ccccc1)c1ccccc1 [Comparative Example 2, 4-(1-methylpiperidyl) 2,2-diphenyl-2-(propoxy-1,1,2,2,3,3,3-d7)acetate] | did not have a significant effect on urethral baseline pressure
3 | CCCOC(C(=O)OC1CCNCC1)(c1ccccc1)c1ccccc1 [Comparative Example 3, 4-piperidyl 2,2-diphenyl-2-propoxyacetate] | did not have a significant effect on urethral baseline pressure
